From ChEMBL document CHEMBL1139762, “Novel substituted tetrahydrotriazaacenaphthylene derivatives as potent CRF1 receptor antagonists” (Bioorg Med Chem Lett, 2007)

What was measured:
[1] = target: T1, Corticotropin-releasing factor receptor 1 (Homo sapiens, UniProt P34998); assay: Displacement of [125I]CRF from human recombinant CRF1 receptor expressed in CHO cell membrane; format: cell membranes
T1 sequence (P34998 whole entry): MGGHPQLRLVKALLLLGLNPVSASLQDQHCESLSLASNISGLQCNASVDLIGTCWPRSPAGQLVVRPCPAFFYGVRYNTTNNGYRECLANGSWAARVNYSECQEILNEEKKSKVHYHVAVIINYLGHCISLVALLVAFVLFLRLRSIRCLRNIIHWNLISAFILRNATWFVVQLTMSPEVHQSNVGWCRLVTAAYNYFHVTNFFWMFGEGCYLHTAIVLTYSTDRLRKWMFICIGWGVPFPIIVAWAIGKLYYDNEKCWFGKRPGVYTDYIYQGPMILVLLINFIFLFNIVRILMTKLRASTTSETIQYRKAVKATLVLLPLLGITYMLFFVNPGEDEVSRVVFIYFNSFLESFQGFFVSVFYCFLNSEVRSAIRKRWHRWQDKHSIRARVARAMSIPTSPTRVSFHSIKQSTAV

[2] = Plasma clearance in Sprague-Dawley rat at 1 mg/kg, po and 0.4 mg/kg, iv; format: ADME, organism-based
[3] = Oral bioavailability in Sprague-Dawley rat at 1 mg/kg; format: ADME, organism-based; conditions: in vivo
[4] = Volume of distribution at steady state in Sprague-Dawley rat at 1 mg/kg, po and 0.4 mg/kg, iv; format: ADME, organism-based; conditions: in vivo, read-out: Vdss
[5] = Half life in Sprague-Dawley rat at 1 mg/kg, po and 0.4 mg/kg, iv; format: ADME, organism-based; conditions: in vivo
[6] = AUC in Sprague-Dawley rat at 1 mg/kg, po and 0.4 mg/kg, iv; format: ADME, organism-based; conditions: plasma

Compound	IC50 [1]	clearance [2]	bioavailability [3]	Vd [4]	half-life [5]	AUC [6]
CCCC(CCC)n1cc2c3c(nc(C)nc31)N(c1ccc(C(F)(F)F)cc1C(F)(F)F)CC2	0.0158 µM					
CCC(CC)n1cc2c3c(nc(C)nc31)N(c1ccc(C(F)(F)F)cc1C(F)(F)F)CC2	0.0251 µM					
CCCC(CCC)N1CCC2CN(c3ccc(Cl)cc3Cl)c3nc(C)nc1c32 (stereo not drawn)	0.0316 µM					
CCCC(CCC)n1cc2c3c(nc(C)nc31)N(c1ccc(C#N)cc1C)CC2	0.0501 µM					
CCC(CC)n1cc2c3c(nc(C)cc31)N(c1ccc(OC)cc1C)CC2	0.0126 µM					
CCC(COC)n1cc2c3c(nc(C)cc31)N(c1ccc(OC)cc1C)CC2 (stereo not drawn)	0.158 µM					
CCCC(CCC)n1cc2c3c(nc(C)cc31)N(c1ccc(OC)c(F)c1)CC2	0.0398 µM	2.82 L/h/kg	37%	24 L/kg	8.6 h	0.131 µg·h/mL
CCC(CC)n1cc2c3c(nc(C)cc31)N(c1ccc(OC(F)(F)F)cc1C)CC2	0.0794 µM					
CCC(CC)n1cc2c3c(nc(C)cc31)N(c1ccc(C(F)(F)F)cc1C(F)(F)F)CC2	0.126 µM	1.26 L/h/kg	28%	6.8 L/kg	7.6 h	0.222 µg·h/mL
CCCC(CCC)n1cc2c3c(nc(C)cc31)N(c1ccc(C(F)(F)F)cc1C(F)(F)F)CC2	0.1 µM	0.48 L/h/kg	71%	2.5 L/kg	5.3 h	1.48 µg·h/mL
CCC(CC)n1cc2c3c(nc(C)cc31)N(c1ccc(OC)c(F)c1)CC2	0.0501 µM					
CCC(CC)n1cc2c3c(nc(C)cc31)N(c1ccc(OC)cc1)CC2	0.0631 µM					
CCCC(CCC)n1cc2c3c(nc(C)cc31)N(c1ccc(C#N)cc1C)CC2	0.00398 µM	3.24 L/h/kg	< 5%	17 L/kg	6.7 h	< 0.015 µg·h/mL
CCC(COC)n1cc2c3c(nc(C)cc31)N(c1ccc(C#N)cc1C)CC2 (stereo not drawn)	0.0398 µM					
CCC(CC)n1cc2c3c(nc(C)cc31)N(c1ccc(C#N)cc1C)CC2	0.0126 µM					
CCCC(CCC)n1cc2c3c(nc(C)cc31)N(c1ccc(OC)cc1C)CC2	0.126 µM					
COCC(COC)Nc1nc(C)nc2c(-c3ccc(Cl)cc3Cl)c(C)nn12	0.0398 µM					
CCCCN(CC)c1nc(C)nc2c1c(C)cn2-c1c(C)cc(C)cc1C [CP-154526]	0.0158 µM					
